The subject of assay [1] is BRAF^V600E. The arrangement: method as in PMID 18942827. The conditions noted are these: cited from earlier work.
The subject of the next assay is four cancer cell lines. The arrangement: method as in PMID 37716963. The settings on record: against four cancer cell lines; cited from earlier work.
Assay [2] has as its system BRAF^V600E. Set-up: method as in PMID 37716963. The conditions noted are these: cited from earlier work.
The next assay deals with Bcl-2. As to the kind of experiment: Bcl-2 inhibition assay. In kind it is cell-based, human. The conditions noted are these: PC-3 cell line. The method, then:
(§1) For more details, see Supplementary Materials. […]
4.2.6. Bcl-2 inhibition assay
Mix all reagents thoroughly without foaming before use. Wash the microwells twice with approximately 300 μL Wash Buffer per well with thorough aspiration of microwell contents between washes. Take caution not to scratch the surface of the microwells.
After the last wash, empty the wells and tap microwell strips on absorbent pad or paper towel to remove excess Wash Buffer. Use the microwell strips immediately after washing or place upside down on a wet absorbent paper for not longer than 15 minutes.
Add 100 μL of Sample Diluent in duplicate to all standard wells and to the blank wells. Prepare standard (1:2 dilution) in duplicate ranging from 32 ng/mL to 0.5 ng/mL. Add 100 μL of Sample Diluent, in duplicate, to the blank wells.
Add 80 μL of Sample Diluent, in duplicate, to the sample wells. Add 20 μL of each Sample, in duplicate, to the designated wells. Add 50 μL of diluted biotin-conjugate to all wells, including the blank wells. Cover with a plate cover and incubate at room temperature, on a microplate shaker at 100 rpm if available, for 2 hours. Remove plate cover and empty the wells. Wash microwell strips 3 times as described in step 2. Add 100 μL of diluted Streptavidin-HRP to all wells, including the blank wells. Cover with a plate cover and incubate at room temperature, on a microplate shaker at 100 rpm if available, for 1 hour. Remove plate cover and empty the wells. Wash microwell strips […]
3 times as described in step 2. Proceed to the next step. Pipette 100 μl of mixed TMB Substrate Solution to all wells, including the blanks. Incubate the microwell strips at room temperature (18° to 25°C) for about 15 minutes, if available on a rotator set at 100 rpm. Avoid direct exposure to intense light. The point, at which the substrate reaction is stopped, is often determined by the ELISA reader. Many ELISA readers record absorbance only up to 2.0 O.D. Therefore, the color development within individual microwells must be watched by the person running the assay and the substrate reaction stopped before positive wells are no longer properly detectable. Stop the enzyme reaction by quickly pipetting 100 μL of Stop Solution into each well, including the blank wells. It is important that the Stop Solution is spread quickly and uniformly throughout the microwells to completely inactivate the enzyme. Results must be read immediately after the Stop Solution is added or within one hour if the microwell strips are stored at 2 - 8°C in the dark. Read absorbance of each microwell on a spectrophotometer using 450 nm as the primary wavelength.
4.3. Statistical analysis
Computerized Prism 5 program was used to statistically analyzed data using one-way ANOVA test followed by Tukey’s as post ANOVA for multiple comparison at P ≤.05.
Data were presented as mean ± SEM.

For another assay, the system named is caspase-3. As to the kind of experiment: Caspase-3 activation assay. In kind it is cell-based, human. The conditions noted are these: PC-3 cell line.
Description: Caspase-3 is a key caspase that cleaves numerous cell proteins, resulting in apoptosis. […] They elevated the protein caspase-3 in the PC-3 cancer cell line by around seven to nine times compared to untreated control cells.
as §1
4.2.3. Caspase-3 activation assay
Allow all reagents to reach room temperature before use. Gently mix all liquid reagents prior to use. Determine the number of 8-well strips needed for the assay. Insert these in the frame(s) for current use. Add 100 μl of the Standard Diluent Buffer to the zero standard wells. Well(s) reserved for chromogen blank should be left empty. Add 100 μl of standards and controls or diluted samples to the appropriate microtiter wells. The sample dilution chosen should be optimized for each experimental system. Tap gently on side of plate to mix. Cover wells with plate cover and incubate for 2 hours at room temperature. Thoroughly aspirate or decant solution from wells and discard the liquid, Wash wells 4 times. Pipette 100 μl of Caspase-3 (Active) Detection Antibod y solution into each well except the chromogen blank(s). Tap gently on the side of the plate to mix.
Cover plate with plate cover and incubate for 1 hour at room temperature. Thoroughly aspirate or decant solution from wells and discard the liquid, Wash well s 4 times. Add 100 μl Anti-Rabbit IgG HRP Working Solution to each well except the chromogen blank(s). Prepare the working dilution as described in Preparing IgG HRP. Cover wells with the plate cover and incubate for 30 minutes at room temperature. Thoroughly aspirate or decant solution from wells and discard the liquid. Wash wells 4 times. Add 100 μl of Stabilized Chromogen to each well. The liquid in the wells will begin to turn blue. Incubate for 30 minutes at room temperature and in the dark. The incuba tion time for chromogen substrate is often determined by the microtiter plate reader used. Many plate readers have the capacity to record a maximum optical density (O.D.) of 2.0. The O.D. values should be monitored, and the substrate reaction stopped befor e the O.D. of […]
the positive wells exceeds the limits of the instrument. The O.D. values at 450 nm can only be read after the Stop Solution has been added to each well. If using a reader that […]
100 μl of Stop Solution to each well. Tap side of plate gently to mix. The solution in the wells should change from blue to yellow. Read the absorbance of each well at 450 nm having blanked the plate reader against a chromogen blank composed of 100 μl each of Stabilized Chromogen and Stop Solution. Read the plate within 2 hours after adding the Stop Solution. Use a curve fitting software to generate the standard curve. A four-parameter algorithm provides the best standard curve fit. Read the concentrations for unknown samples and controls from the standard curve. Multiply value(s) obtained for sample(s) by the appropriate dilution factor to correct for the dilution in step 3. Samples producing signals greater than that of the highest standard should be diluted in Standard Diluent Buffer and reanalyzed. […]
A standard curve is […]
prepared from 7human Caspase-8 standard dilutions and human Caspase-8 concentration determined.

A further assay relates to Bax. Kind of assay: Bax activation assay. The assay is classed as cell-based, human. The settings on record: PC-3 cell line. The method, then:
For more details, see Supplementary Materials.
4.2.5. Bax activation assay
Bring all reagents, except the human Bax-α Standard, to room temperature for at least 30 minutes prior to opening. The human Bax -α Standard solution should not be left at room temperature for more than 10 minutes. All standards, controls and samples should be run in duplicate. Refer to the Assay Layout Sheet to determine the number of wells to be used and put any remaining wells with the desiccant back into the pouch and seal the ziploc. Store unused wells at 4 °C. Pipet 100 μL of Assay Buffer into the S0 ( 0 pg/mL standard) wells. Pipet 100 μL of Standards #1 through #6 into the appropriate wells. Pipet 100 μL of the Samples into the appropriate wells. Tap the plate gently to mix the contents. Seal the plate and incubate at room temperature on a plate shaker for 1 hour at ~500 rpm. Empty the contents of the wells and wash by adding 400 μL of wash solution to every well. Repeat the wash 4 more times for a total of 5 washes. After the final wash, empty or aspirate the wells and firmly tap the plate on a lint fr ee paper towel to remove any remaining wash buffer. Pipet 100 μL of yellow Antibody into each well, except the Blank. Seal the plate and incubate at room temperature on a plate shaker for 1 hour at ~500 rpm. Empty the contents of the wells and wash by addi ng 400 μL of […]
the final wash, empty or aspirate the wells and firmly tap the plate on a lint free paper towel to remove any remaining wash buffer. Add 100 μL of blue Co njugate to each well, except the Blank. Seal the plate and incubate at room temperature on a plate shaker for 30 minutes at ~500 rpm. Empty the contents of the wells and wash by adding 400 μL of wash solution to every well. Repeat the wash 4 more times for a total of 5 washes .
After the final wash, empty or aspirate the wells and firmly tap the plate on a lint free paper towel to remove any remaining wash buffer. Pipet 100 μL of Substrate Solution into each well. Incubate for 30 minutes at room temperature on a plate shaker at ~500 rpm. Pipet 100 μL Stop Solution to each well. Blank the plate reader against the Blank wells, read the optical density at 450 nm. Calculate the average net Optical Density (OD) bound for each standard and sample by subtracting the average Blank OD from the average OD for each standard and sample. Using linear graph paper, plot the Average Net OD for each standard versus Bax concentration in each standard.
Approximate a straight line through the points. The concentration of Bax in the unknowns can be determined by interpolation. […]

[3] abbreviates: Figure 1, read-out: IC50 BRAF inhibitor.
Setting [4] is: text b8, read-out: IC50 anti-BRAF^V600E.

Read-outs that look alike come from different tables or passages of the source.

Consider five compounds from article PMC10819888, “Benzimidazole-Based Derivatives as Apoptotic Antiproliferative Agents: Design, Synthesis, Docking, and Mechanistic Studies” (Molecules, 2024).

Consider `COC(=O)c1ccc2[nH]c(-c3ccc(Cl)cc3)nc2c1` [Compound 2], for which the figures for the 50% inhibitory concentration (IC50) with BRAF^V600E [1] (setting [3]) and in the assay on BRAF^V600E [1] (setting [4]) were 2 nM and 2000 nM, respectively.

Turning to `NNC(=O)c1ccc2[nH]c(-c3ccc(Cl)cc3)nc2c1` [Compound 3], the IC50 was 14 nM with BRAF^V600E [1] (setting [3]) and 14000 nM in the assay on BRAF^V600E [1] (setting [4]).

Turning to `COc1ccc(-c2nc3cc(-c4nnc(SCC(=O)Nc5ccc(C(=O)/C=C/c6ccccc6)cc5)o4)ccc3[nH]2)cc1` [Compound 4], the GI50 with four cancer cell lines was 1200 nM. In addition, the IC50 in the assay with BRAF^V600E [2] is 1700 ± 200 nM.

`C#Cc1cccc(Nc2ncnc3cc(OCCOC)c(OCCOC)cc23)c1` [erlotinib]: in the assay on BRAF^V600E [2], the IC50 is […].

`CN[C@@H]1C[C@H]2O[C@@](C)([C@@H]1OC)n1c3ccccc3c3c4c(c5c6ccccc6n2c5c31)C(=O)NC4` [staurosporine, reference compound]: the “Bcl-2 Conc” value in the assay with Bcl-2 is on record as 1.00 ng/mL. For the same compound, in the assay with caspase-3, the “Caspase-3 Conc” value was 260 ± 5 pg/mL and the caspase-3 protein level is listed as 260 ± 5 pg/mL. In the assay on Bax, the “Bax Conc” value came to 170 pg/mL, the “Bax increase compared to untreated PC-3 cancer cells” value worked out at 24 fold and the Bax level turned out to be 170 pg/mL.
